Laboratory results: ChEMBL document CHEMBL1146589, “Potential cncer chemopreventive flavonoids from the stems of Tephrosia toxicaria” (J Nat Prod, 2003)

What was measured:
[1] = Inhibition of 7,12-dimethylbenz[a]anthracene-induced preneoplastic lesions in a mouse mammary gland culture at 10 ug/mL; format: functional
[2] = Inhibition of mouse Hepa-1c1c7 cells by MTT assay; format: cell-based
[3] = Chemoprevention index, ratio of IC50 for mouse Hepa-1c1c7 cells to drug level required to double NADPH:quinone reductase activity in mouse Hepa-1c1c7 cells; format: functional
[4] = tissue or blood; details: Mus musculus, Mammary gland, read-out: INH
Description: Inhibition of 7,12-dimethylbenz[a]anthracene-induced preneoplastic lesions in a mouse mammary gland culture at 1 ug/mL

Row | Structure (SMILES) | inhibition at 10 µg/mL [1] [%] | IC50 [2] [µM] | Ratio [3] | inhibition at 1 µg/mL [4] [%]
1 | COc1cc2c(cc1OC)-c1c(oc3c4c(cc(O)c3c1=O)OC(C)(C)C=C4)CO2 | 19 | > 47 |  | 
2 | COc1cc2c(cc1OC)[C@]1(O)C(=O)c3c(O)cc4c(c3O[C@@H]1CO2)C=CC(C)(C)O4 | 60 | > 47 |  | 
3 | COc1cc(O)c2c(c1/C=C/C(C)=O)O[C@H](c1ccccc1)CC2=O | 0 | > 14.9 | >1.4 | 
4 | COc1cc2c(cc1OC)[C@]1(O)C(=O)c3c(O)cc4c(c3O[C@@H]1CO2)C(OC)C(O)C(C)(C)O4 (stereo partly drawn) |  | 9.1 | 1.4 | 
5 | COc1cc(-c2cc(=O)c3c(O)cc(O)cc3o2)ccc1O [CHRYSOERIOL] |  | 36 | 3.1 | 
6 | O=c1c(-c2ccc(O)cc2)coc2cc(O)cc(O)c12 [GENISTEIN] |  | 45.2 | 2 | 
7 | O=C(/C=C/c1ccc(O)cc1)c1ccc(O)cc1O [ISOLIQUIRITIGENIN] | 76 | 36.3 | 10.1 | 
8 | C[S+]([O-])CCCCN=C=S (stereo not drawn) [SULFORAPHANE] |  | 11 | 25 | 83.7
9 | C=C(C)[C@H]1Cc2c(cc(O)c3c2O[C@@H]2COc4cc(OC)c(OC)cc4[C@@H]2C3=O)O1 [SUMATROL] | 49.9 | > 47 |  | 
10 | COc1cc2c(cc1OC)[C@@H]1C(=O)c3c(O)cc4c(c3O[C@@H]1CO2)C=CC(C)(C)O4 [TOXICAROL] | 80 | > 47 |  | 
